Experimental data: the supplement of paper PMC10307832

Tests used:
Test in all cases: relative viability (nuclei count vs DMSO), 5 days (fraction); higher = more cells survive
[1] = compound: Cn1nnc2c(C(N)=O)ncn2c1=O [Temozolomide] + CC(C)C[C@H](NC(=O)[C@H](Cc1ccccc1)NC(=O)c1cnccn1)B(O)O [Bortezomib] (partner 0.002 µM)
In short: (§1)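 A single step with final 0.05% Triton X-100, 1% formaldehyde and 1 ug/ml Hoechst fixed the cells and stained nuclei 5 days after treatment. Lung cancer cell lines in 1536-well plates had been treated by pin tool the day after seeding with one drug alone or a fixed anchor-drug dose plus five library-drug doses (not always all listed) in √10 steps, and nuclei were counted on 4× images. Relative viability is the ratio of nuclei in treated wells to nuclei in vehicle wells, taken as the median of duplicate plates.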

[2] = compound: C[C@@H](C(=O)N[C@@H](C1CCCCC1)C(=O)N2CCC[C@H]2C(=O)N[C@@H]3[C@@H](CC4=CC=CC=C34)OCC#CC#CCO[C@@H]5CC6=CC=CC=C6[C@@H]5NC(=O)[C@@H]7CCCN7C(=O)[C@H](C8CCCCC8)NC(=O)[C@H](C)NC)NC [AZD5582] + N=C(N)NC(=N)NCCc1ccccc1 [Phenformin] (partner 250 µM)
In short: as §1

[3] = compound: Cn1nnc2c(C(N)=O)ncn2c1=O [Temozolomide] + CS(=O)(=O)CCNCc1ccc(-c2ccc3ncnc(Nc4ccc(OCc5cccc(F)c5)c(Cl)c4)c3c2)o1 [Lapatinib] (partner 2 µM)
In short: as §1

[4] = compound: C[C@@H](C(=O)N[C@@H](C1CCCCC1)C(=O)N2CCC[C@H]2C(=O)N[C@@H]3[C@@H](CC4=CC=CC=C34)OCC#CC#CCO[C@@H]5CC6=CC=CC=C6[C@@H]5NC(=O)[C@@H]7CCCN7C(=O)[C@H](C8CCCCC8)NC(=O)[C@H](C)NC)NC [AZD5582] + Cc1cc(Nc2cc(N3CCN(C)CC3)nc(Sc3ccc(NC(=O)C4CC4)cc3)n2)n[nH]1 [Tozasertib] (partner 0.1 µM)
In short: as §1

Row | Cell Line | relative viability ([1]; first compound 0.2 µM) | relative viability ([1]; first compound 0.6325 µM) | relative viability ([1]; first compound 2 µM) | relative viability ([1]; first compound 6.325 µM) | relative viability ([1]; first compound 20 µM) | relative viability ([2]; first compound 0.001581 µM) | relative viability ([2]; first compound 0.005 µM) | relative viability ([2]; first compound 0.01581 µM) | relative viability ([2]; first compound 0.05 µM) | relative viability ([3]; first compound 0.2 µM) | relative viability ([3]; first compound 0.6325 µM) | relative viability ([3]; first compound 2 µM) | relative viability ([3]; first compound 6.325 µM) | relative viability ([3]; first compound 20 µM) | relative viability ([4]; first compound 0.001581 µM) | relative viability ([4]; first compound 0.005 µM) | relative viability ([4]; first compound 0.01581 µM) | relative viability ([4]; first compound 0.05 µM)
1 | 201T | 1.15 | 1.08 | 1.08 | 1.07 | 1.08 | 0.459 | 0.478 | 0.406 | 0.579 | 1.07 | 1.06 | 1.03 | 1.02 | 1.03 | 1.01 | 1.07 | 0.961 | 1.13
2 | A549 | – | – | – | – | – | 0.172 | 0.127 | 0.152 | 0.278 | 0.989 | 1.03 | 1.01 | 1.03 | 0.912 | – | – | – | –
3 | A-427 | 1 | 0.934 | 0.993 | 0.87 | 0.616 | 0.265 | 0.322 | 0.248 | 0.206 | 0.989 | 1.09 | 1.14 | 0.91 | 0.487 | 0.201 | 0.198 | 0.221 | 0.167
4 | ABC-1 | 0.351 | 0.274 | 0.383 | 0.315 | 0.256 | 0.239 | 0.241 | 0.23 | 0.251 | 0.93 | 1.22 | 1.18 | 1.16 | 1.3 | 0.157 | 0.169 | 0.196 | 0.166
5 | BEN | 0.965 | 0.77 | 0.911 | 0.577 | 0.588 | 0.278 | 0.249 | 0.301 | 0.27 | 0.641 | 0.692 | 0.66 | 0.633 | 0.467 | 0.479 | 0.53 | 0.577 | 0.51
6 | CAL-12T | – | 0.964 | 0.945 | 1.04 | 0.967 | 0.354 | 0.27 | 0.408 | 0.222 | – | 0.585 | 0.601 | 0.607 | 0.8 | 0.219 | 0.226 | 0.282 | 0.228
7 | COR-L23 | 1.15 | 1.12 | 1.08 | 1.06 | 0.963 | 0.42 | 0.418 | 0.385 | 0.521 | 1.25 | 1.03 | 1.12 | 1.02 | 0.948 | 0.187 | 0.246 | 0.257 | 0.241
8 | COR-L 105 | 0.646 | 0.683 | 1.01 | 0.756 | 0.32 | 0.503 | 0.651 | 0.392 | 0.496 | 0.392 | 0.387 | 0.356 | 0.35 | 0.351 | 0.373 | 0.404 | 0.282 | 0.418
9 | Calu-6 | 1.11 | 0.866 | 1.25 | 0.955 | 1.02 | – | – | – | – | 1.17 | 1.07 | 1.11 | 1.13 | 1.16 | – | – | – | –
10 | ChaGo-K-1 | 1.17 | 0.955 | 1.21 | 0.967 | 0.985 | 0.445 | 0.54 | 0.4 | 0.513 | – | – | – | – | – | 0.242 | 0.231 | 0.208 | 0.215
11 | EBC-1 | 0.601 | 0.577 | 0.549 | 0.544 | 0.575 | – | – | – | – | 0.197 | 0.193 | 0.252 | 0.203 | 0.194 | – | – | – | –
12 | EKVX | 0.991 | 1.1 | 1.06 | 0.996 | 0.884 | 0.217 | 0.23 | 0.196 | 0.228 | 0.189 | 0.238 | 0.204 | 0.242 | 0.197 | 0.309 | 0.41 | 0.388 | 0.371
13 | EMC-BAC-2 | 0.977 | 1.13 | 1.02 | 1.01 | 1.04 | 0.405 | 0.508 | 0.418 | 0.335 | 0.914 | 0.871 | 0.898 | 0.856 | 0.84 | 0.271 | 0.269 | 0.288 | 0.187
14 | EPLC-272H | 1.02 | 1.05 | 0.91 | 0.832 | 0.805 | 0.0525 | – | 0.233 | 0.0492 | 1.12 | 1.05 | 1.01 | 0.798 | 0.858 | 0.15 | – | 0.292 | 0.076
15 | H3255 | – | 0.755 | 0.849 | 0.824 | 0.213 | 0.392 | 0.326 | 0.34 | 0.353 | – | 0.243 | 0.233 | 0.376 | 0.241 | 0.553 | 0.609 | 0.676 | 0.509
16 | HARA | 1.26 | 1.16 | 1.24 | 1.14 | 1.05 | 0.415 | 0.501 | 0.493 | 0.403 | 0.777 | 0.721 | 0.975 | 0.658 | 0.732 | 0.0907 | 0.117 | 0.13 | 0.0952
17 | HCC-15 | 1.02 | 1.06 | 1.05 | 0.975 | 1.1 | 0.391 | 0.437 | 0.31 | 0.402 | 0.91 | 0.87 | 0.931 | 0.829 | 0.892 | 0.375 | 0.42 | 0.473 | 0.459
18 | HCC-44 | 0.938 | 0.855 | 0.869 | 0.827 | 0.988 | 0.169 | 0.149 | 0.105 | 0.145 | 1.14 | 1.01 | 1.11 | 1.05 | 0.975 | 0.482 | 0.642 | 0.798 | 0.324
19 | HCC-78 | – | 0.524 | 0.537 | 0.515 | 0.567 | 0.606 | 0.664 | 0.389 | 0.567 | 0.938 | 0.602 | 0.791 | 0.321 | 0.826 | 1.42 | 0.515 | 0.428 | 0.529
